Two molecules from patent publication US9951055B2, “Thiazole-based inhibitors of scavenger receptor BI” (THE BROAD INSTITUTE, INC., priority 2012, dated 2018) can be followed below.

One test has as its target T1, C384S SR-BI (Mus musculus, UniProt Q61009, C384S).
T1 construct: expressed in transfected cells; host or cells: CHO cell line lacking LDL receptors (variant of ldlA[mSR-BI])
T1 sequence (Q61009 1-509 C384S): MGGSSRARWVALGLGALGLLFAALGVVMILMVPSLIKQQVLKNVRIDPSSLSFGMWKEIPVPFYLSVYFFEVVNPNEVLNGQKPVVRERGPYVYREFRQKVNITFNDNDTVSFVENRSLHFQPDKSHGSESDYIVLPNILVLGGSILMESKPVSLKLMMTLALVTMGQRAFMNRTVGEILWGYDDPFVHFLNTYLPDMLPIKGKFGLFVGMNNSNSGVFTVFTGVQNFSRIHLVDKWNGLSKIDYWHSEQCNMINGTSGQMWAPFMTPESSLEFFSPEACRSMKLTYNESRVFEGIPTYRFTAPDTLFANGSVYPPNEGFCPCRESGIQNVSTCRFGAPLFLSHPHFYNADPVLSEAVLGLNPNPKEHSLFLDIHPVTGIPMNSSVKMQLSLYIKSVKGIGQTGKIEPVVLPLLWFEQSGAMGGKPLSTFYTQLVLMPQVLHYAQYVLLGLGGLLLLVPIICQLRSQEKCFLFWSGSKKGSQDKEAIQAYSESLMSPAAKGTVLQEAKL
Description: Radioactive HDL uptake assay (mutant SR-BI). The format is cell-based, murine. An excerpt:
Radioactive HDL Uptake Assay (mutant SR-BI) (SA 9: AID No. 588837)
BLT-1 is known to interact at cysteine 384 of SR-BI (16). […] This assay is used to determine if the compounds work in a similar fashion to BLT-1 and require Cys384 to alter the binding of HDL particles and uptake of the lipid to the mutant SR-BI scavenger receptor, using an alternative means of labeling HDL-cholesterol particles and avoiding any type of fluorescence measurement. To measure this lipid uptake event, HDL particles are labeled with [^3H]cholesteryl ester and added to C384S SR-BI cells. Cells take up HDL lipids via the mutant SR-BI in 2 to 3 hours. After significant uptake of the HDL lipid, the radiolabel can be detected by liquid scintillation counting. The level of radioactivity correlates with the amount of HDL lipid uptake. The uptake of lipid from the HDL particles can be inhibited by the compound BLT-1 or when co-treated with an excess of unlabeled HDL. The mSR-BI cells utilized in the assay are a CHO cell line lacking expression of the LDL receptors and overexpressing the mutant scavenger receptor, C384S SR-BI.

Test [1] has as its system Jc1 378-1 TagRFP reporter HCV virus. Description: In vitro inhibition of HCV in Huh-7.5 cells. It is filed as cell-based, hepatitis C virus. Conditions: for inhibition of HCV replication: Huh-7.5 cells, MOI=0.1, 3 dpi; for mean fluorescence intensity (MFI) of HCV positive cells: normalized to DMSO control. As to the method: The compound of formula (II) was also tested for the in vitro inhibition of HCV. Huh-7.5 cells were seeded in a 24-well plates (50,000 cells/well) and incubate over night. The medium was changed to compound/solvent containing medium 2 hours prior to infection (200 μL/well) with a reporter HCV virus called Jc1 378-1 TagRFP. A dilute virus stock was used to infect at a MOI of 0.1 (7,500 IU/well) in 10 μL medium. 10 μL of virus dilution was added to the wells containing compound/solvent (thereby dilution the compounds by only ˜5%). Infections were incubated for 4 hours before washing off the inoculum 1× with 500 μL medium. Fresh compound/solvent containing medium was added to the cells (500 μL/well), and further incubated for 48-72 hours. Cells were harvested at 48-72 hpi and viral replication was determined by fixing the cells and measuring replication by FACS (fluorescence activated cell sorting). Controls having antibodies that neutralize HCV by blocking E2 (2 μg/mL) and controls having antibodies that block a HCV receptor CD81 (2 μg/mL) were used.
A series of tests were conducted using the compound of Formula II ML278), other known inhibitors of SRB1 and controls with cells infected with hepatitis C virus (HCV). The cells (Huh-7.5 cells infected with Jc1 378-1 TagRFP (MOI=0.1) 3 dpi) were treated with the following SR-BI compounds and controls:
Three different infection protocols were followed: (1) no wash—virus inoculum was removed 4 hpi and fresh medium containing compounds added without washing cells; (2) 5× wash—virus inoculum was removed 4 hpi, cells were washed 5× with PBS and fresh medium containing compounds added; and (3) no wash Opt—infection were performed in serum-free OptiMem; virus inoculum was removed 4 hpi and fresh medium containing compounds added without washing cells. FIG. 107 provides a comparison of the three different infection set-ups. FIG. 108 provides a comparison of two independent experiments.

Test [2] addresses T2, murine SR-BI with the C384S mutation (Mus musculus, UniProt Q61009, C384S).
T2 construct: expressed in transfected cells; host or cells: CHO cell line lacking LDL receptors (variant of ldlA[mSR-BI])
T2 sequence (Q61009 1-509 C384S): T1 sequence (Q61009 1-509 C384S)
Description: Mutant SR-BI cholesterol efflux assay. It is filed as cell-based. As to the method: Mutant SR-BI Cholesterol Efflux Assay (SA 10: AID Nos. 588843, 602138)
BLT-1 is known to interact at cysteine 384 of SR-BI (16). […] This assay is used to determine if the compounds work in a similar fashion to BLT-1 and require Cys384 to alter the efflux of free cholesterol to HDL.
On Day 0, 50,000 cells expressing murine SR-BI with the C384S mutation per well were plated in 24-well plates. On the following day, […] On Day 1, the medium was replaced with Ham's F12 medium supplemented with 10% bovine lipoprotein deficient serum with 1 μCi/ml [1,2-^3H]cholesterol (40-60 Ci/mmol). On Day 3, the cells were washed to remove serum and incubated in Ham's F12 plus 1% fatty acid-free BSA. On Day 4, the cells were washed and pretreated with compounds for 1 hour. Subsequently, the cells were incubated for an additional 2 hours with the same concentrations of small molecules and with unlabeled HDL (final HDL concentration of 100 μg protein/ml). […] The amount of [^3H]cholesterol in the medium and within cells was calculated using liquid scintillation counting. Total cellular [^3H]cholesterol was determined as the sum of the radioactivity in the efflux medium plus the radioactivity in the cells and was used to calculate the [^3H]cholesterol efflux (percent of total [^3H]cholesterol released into the medium).

“Also recorded” adds a separate entry of the source.

Consider `CCCCCCC1CCCC1=NNC(N)=S` (stereo not shown) [BLT-1, reference compound], for which the “uptake of HDL in Cys384Ser mutant background” value at C384S SR-BI is recorded as “does not significantly reduce uptake of HDL or efflux of cholesterol”. In addition, the “inhibition of HCV replication” value in test [1] (listed as SRB1-8) is “inhibited viral replication; also recorded: able to inhibit HCV replication”. In addition, the “mean fluorescence intensity (MFI) of HCV positive cells” value in test [1] is “increased mean fluorescence intensity (MFI) of HCV positive cells in a dose dependent manner”. The “efflux of cholesterol in Cys384Ser mutant background” value in test [2] was “does not significantly reduce uptake of HDL or efflux of cholesterol”.

As for `COCC(=O)N1CCc2cc(-c3csc(NC(=O)c4cc(OC)cc(OC)c4)n3)ccc21` [Compound 137, 3,5-Dimethoxy-N-(4-(1-(2-methoxyacetyl)indolin-5-yl)thiazol-2-yl)benzamide], at C384S SR-BI, the “uptake of HDL in Cys384Ser mutant background” value is “can reduce uptake and efflux in the mutant background”. Moreover, the concentration for a half-maximal effect (EC50) in test [1] (Hepatitis C virus, Huh7.5, read-out: EC50, HCV) worked out at 44 nM. Further, the EC90 in test [1] (Hepatitis C virus, Huh7.5, read-out: EC90, HCV) was ~500 nM. Moreover, the “inhibition of HCV replication” value in test [1] (listed as SRB1-7) was “inhibited viral replication; also recorded: able to inhibit HCV replication”. The “mean fluorescence intensity (MFI) of HCV positive cells” value in test [1] was “this increase was not seen”. Besides, the “efflux of cholesterol in Cys384Ser mutant background” value in test [2] is “can reduce uptake and efflux in the mutant background”.
